# Experiments:
# [1] = system: cytokines Granzyme B, IFN-γ, and IL-2; assay: ELISA of cytokines in supernatant of co-cultured 4T1-EGFRvIII cells and CAR-T cells; type: cell-based, mouse; settings: 4T1-EGFRvIII co-culture with CAR-T cells, olaparib groups
# Procedure: Olaparib pretreatment group: different concentrations of olaparib (1 μM, 5 μM) are added to the medium for culturing E0771-EGFRVIII or 4T1-EGFRvIII tumor cells respectively, culturing at 37° C. for 24 h, and then the cells are treated with trypsin and resuspended in fresh medium. The untreated mouse T cells and 806-mCD28z-CAR T cells in Example 1 are respectively taken to incubate with E0771-EGFRvIII or 4T1-EGFRVIII cells pretreated with different concentrations of olaparib at a ratio of 1:3, 1:1, and 3:1; 16 hours later, the secretion of LDH in the supernatant is detected by Cytox 96 Non-Radioactive Cytotoxicity Assay, then calculating the killing toxicity of 806-mCD28z CAR T cells to tumor cells pretreated with different concentrations of olaparib. For specific detection steps and calculation methods, see the instructions of Promaga. Cytox 96 Non-Radioactive Cytotoxicity Assay (Promaga, REF: G1782); at the same time, the secretions of cytokines Granzyme B, IFN-γ, and IL-2 in the supernatant are detected by ELISA kit (Lianke Biotech Co. Ltd. CAT: 18^.22), for specific experimental procedures, referring to instructions of MouseGranzyme B, IFN-γ, IL-2 ELISA kit from Lianke Biotech Co, Ltd. […]
# [2] = system: 4T1-EGFRvIII orthotopic breast cancer xenografts; assay: Mouse 4T1-EGFRvIII orthotopic breast cancer xenografts, olaparib and CAR-T; type: in vivo, BALB/c mice; settings: olaparib 50 mg/kg i.p. with CAR-T cells
# Procedure: (1) Establishment of mouse orthotopic breast cancer model and respective treatment in groups:
# 4T1-EGFRvIII cells in the logarithmic growth phase and growing well are collected, inoculating 5×10^5 target cells at right side position of the third pair of accessory breasts of BABL/C mice (mice with normal immune system), and the inoculating day is recorded as the first day (i.e., Day 1).
# On the 10th day after tumor inoculation (i.e. Day 10), mouse T cells are taken and 806-mCD28z-CAR-T cell line is constructed as described in step 1 of this example.
# On the 14th day after tumor inoculation (i.e., Day 14), the volume of the tumor reaches about 150 mm^3, and the mice are divided in groups: […]
# (2) Detection of tumor volume. The tumor volume changes of mice are observed and measured continuously, and recorded three times a week. […]
# (4) Detection of CAR-T copy number in tumor tissues. Tumor tissues of each group of mice are ground to extract DNA, and the sequence of retroviral vector fragment is detected by Taqman probe method to determine the DNA copy number of 806-mCD28z-CAR. […]
# (6) Detection of MDSC cells in tumor tissue. The tumor tissues of mice in each group are ground, and after enzyme digestion, the changes in the proportion of MDSC cells are analyzed by flow cytometry. […]
structure (smiles),measurement,setting,value
O=C(c1cc(Cc2n[nH]c(=O)c3ccccc23)ccc1F)N1CCN(C(=O)C2CC2)CC1 [olaparib],level of cytokine in the supernatant,[1],not increased
same,toxicity of combining olaparib with CAR-T cell therapy (from body weights),[2],do not cause significant toxicity
